From US7727993B2, “Administering adenosine A2A receptor antagonist to reduce or suppress side effects of parkinson's disease therapy” (Kyowa Hakko Kirin Co., Ltd., priority 2002, dated 2010) come the findings set out here.

The test system of data set [1] is 6-hydroxydopamine lesion rats. Description: In vivo microdialysis of GABA and glutamate in substantia nigra pars reticulata (Example 3). Also on record: species or system rat. The procedure:
GABA and glutamate concentrations in an output nucleus of basal ganglia, substantia nigra pars reticulata (SNr), are measured in the 6-hydroxydopamine lesion rats and the chronically L-DOPA-treated rats after 6-hydroxydopamine lesion. Effect of adenosine A2A receptor selective antagonists on GABA and glutamate levels in SNr and dyskinesias was examined. 6-hydroxydopamine (8 μg) was injected into the left medial forebrain bundle in a rat. One week after the lesion, the rats were then tested for contralateral turning by injecting apomorphine (0.1 mg/kg s.c.). Only those animals showing robust contralateral turning were used in subsequent experiments. […] Rats were placed in each test chamber and the microdialysis probe inserted into SNr was attached to a fluid swivel (TCS2-23, Eicom) that allowed free movement (also sustained rotational behavior). Probes were continuously perfused with a modified Ringer's solution (1.2 mmol/L CaCl2, 2.7 mmol/L KCl, 148 mmol/L NaCl, and 0.85 mmol/L MgCl2; pH 7, artificial cerebrospinal fluid solution) at a rate of 2 μL/min via a microinjection pump (CMA/100, Carnegie […] AB). After stabilization of basal level of release for 3-4 h, 4 samples (60 μL each) during 2 h of perfusion were collected using a fraction collector (CMA/140, Carnegie […]). […] The samples were immediately assayed or frozen and stored in a deep freeze (-80° C.) before assays. GABA and glutamate were analyzed using reverse phase high-performance liquid chromatograph with fluorescence detection after pre-column derivatization of the amino acids with orthophthaldialdehyde reagent. Lindroth and Mopper (1979).

For data set [2], the system named is chronically L-DOPA-treated 6-hydroxydopamine lesion rats. The experiment in a line: Abnormal involuntary movements (AIMs) scoring, L-DOPA induced dyskinesia (Example 3). The format is in vivo, rat. The procedure: 6-hydroxydopamine (8 μg) was injected into the left medial forebrain bundle in a rat. One week after the lesion, the rats were then tested for contralateral turning by injecting apomorphine (0.1 mg/kg s.c.). Only those animals showing robust contralateral turning were used in subsequent experiments.
During the chronic treatment of L-DOPA, recording of severity scale of AIMs were carried out. In addition, an amplitude-based scale for each limb and axial AIMs was scored during a microdialysis study. Amplitude scores of limb or axial AIMs (each ranging from 0 to 4) was rated based on both the magnitude of paw/limb translocation and of the visible involvement of distal versus proximal muscle groups or on the lateral deviation (or torsion) of an animal's neck and trunk from the longitudinal axis of its body, respectively.

Data set [3] deals with MPTP-treated common marmosets. Description: L-DOPA induced dyskinesia in MPTP-treated marmosets primed with L-DOPA (Example 5). The format is in vivo. As to conditions: L-DOPA 2.5 mg/kg oral. The procedure:
METHODS: MPTP (Sigma-Aldrich, St. Louis, Mo., USA) was dissolved in physiological saline and administered at a dose of 2.0 mg/kg s.c. daily for 5 days. Then, MPTP 2 mg/kg were further administered approximately 3 weeks.
The dyskinesia of the animals was scored using the rating scale described in Table 4. […] The score was calculated as the L-DOPA pre value. On the next day the animals received vehicle for the vehicle control value. […] Animals were assessed for dyskinesia on days 1, 3, 5, 7, 14, 21 and 28 according to the rating scale.
Abnormal movement such as, orofacial movements, myoclonus and complex stereotypic behaviors (e.g., elaborate checking, obsessive grooming), are exclude from dyskinesia rating.
Remarks According to Dyskinesia. Dystonia (arm, leg and trunk): abnormal sustained posture (ex. leg elevation). Stereotypic reaching (arm) Athetosis (arm and leg): writhing twisting movements. Chorea (arm and leg): abnormal rapid (dance like) movements of limbs. Akathisia: motor restlessness. Dyskinesia score is become higher according to severity of dyskinesia. The maximal score is four points.

The next data set relates to MPTP cynomologus monkeys. The experiment in a line: Chronic L-DOPA alone or with KW-6002 in drug-naive MPTP parkinsonian monkeys (Example 4). The format is in vivo. The settings on record: L-DOPA alone group versus L-DOPA plus KW-6002 group; week 3 and 4; FIG. 8. The procedure: ANIMALS: 8 (eight) female drug-naïve cynomologus monkeys weighing between 3 and 5 kg were used. They were rendered parkinsonian by subcutaneous infusion of MPTP (0.5 mg daily) until development of an obvious parkinsonian Syndrome (akinesia, hunched posture and tremor associated with a disability score on our scale of 6 or more). The cumulative dose necessary was variable: from 3.5 to 23.5 mg. The animals were allowed to recover during at least one month except an animal who had to be treated earlier because of marked akinesia. They were scored at least once daily. The disability score remained stable throughout that period. […] The drug was administered orally with a special capsule handler. The animals in the KW-6002 group also received this compound (90 mg/kg) by the oral route. The animals were observed daily (from Monday to Friday) in their cages through a one-way screen and video recordings were made of significant events (abnormal behavior—dyskinesias). They were scored on disability scale and eventually dyskinesia rating scale, before and during the effect. The treatment with L-DOPA was continued for one month.

The mark [4] stands for this setting: L-DOPA treatment 2 weeks after 6-hydroxydopamine lesion.
Setting [5] is: L-DOPA treatment 3 weeks after 6-hydroxydopamine lesion.

The structures appear in SMILES notation. Entries after “also recorded” stand apart in the source; their conditions may differ.

Turning to `N[C@@H](Cc1ccc(O)c(O)c1)C(=O)O` [L-DOPA], the “nigral GABA level” value in data set [1] (6-hydroxydopamine lesion rats, change from pre-value, KW-6002 1 mg/kg p.o., FIG. 2A, 3A) was “facilitation; also recorded: significant increases”. Further, the nigral glutamate level result in data set [1] (6-hydroxydopamine lesion rats, change from pre-value, KW-6002 1 mg/kg p.o., FIG. 2B, 3B) is “facilitation; also recorded: significant increases”. Further, the “basal level of nigral GABA” value in data set [1] (L-DOPA treatment 1 week (20 mg/kg orally twice a day) after 6-hydroxydopamine lesion) came to 19.3 ± 2.3 nmol/L; in data set [1] (setting [4]), 20.9 ± 6.8 nmol/L; in data set [1] (setting [5]), 23.6 ± 4.5 nmol/L. In addition, the “basal level of nigral glutamate” value in data set [1] (L-DOPA treatment 1 week after 6-hydroxydopamine lesion) was found to be 147.5 ± 38.1 nmol/L; in data set [1] (setting [4]), 112.0 ± 47.1 nmol/L; in data set [1] (setting [5]), 425.4 ± 99.6 nmol/L. For the same molecule, the “nigral GABA levels after administration” value in data set [1] (chronically L-DOPA-treated 6-hydroxydopamine lesion rats, FIG. 5A) was “without effect”. The “nigral glutamate levels after administration” value in data set [1] (chronically L-DOPA-treated 6-hydroxydopamine lesion rats, FIG. 5B) is on record as “increased”. Besides, in data set [1] (constant until 2 weeks), the “basal nigral glutamate concentration during chronic L-DOPA (in words)” value was “drastically increase in 3 weeks”. The “basal nigral GABA levels during chronic L-DOPA (in words)” value in data set [1] (throughout 1 to 3 weeks) was “maintained unchanged”. For the same molecule, the “average maximum AIM scores” value in data set [2] (2 to 3 weeks chronic L-DOPA, from 10 min to 3 hrs after L-DOPA administration) is recorded as 9. Moreover, the “AIMs (sum of the amplitude score of limb and axial AIMs)” value in data set [2] (chronically L-DOPA-treated rats, FIG. 4) is given as “marked AIMs”. Moreover, the “dyskinesias induced by L-DOPA” value in data set [3] was “mild dyskinesias”. The level of dyskinesia result in the data set on MPTP cynomologus monkeys was “reached a higher level”.
